In paper PMC9965614, “Computer-Aided Virtual Screening and In Vitro Validation of Biomimetic Tyrosinase Inhibitory Peptides from Abalone Peptidome” (International Journal of Molecular Sciences, 2023):
Where a SMILES comes first, the peptide text is derived from it.

Columns and labels:
mushroom tyrosinase = mushroom tyrosinase (Agaricus bisporus, UniProt C7FF04); assay: Mushroom tyrosinase activity assay (L-DOPA oxidation, diphenolase); assay type: biochemical; conditions: L-DOPA substrate, up to 500 μM
mushroom tyrosinase, sequence (C7FF04 1-392): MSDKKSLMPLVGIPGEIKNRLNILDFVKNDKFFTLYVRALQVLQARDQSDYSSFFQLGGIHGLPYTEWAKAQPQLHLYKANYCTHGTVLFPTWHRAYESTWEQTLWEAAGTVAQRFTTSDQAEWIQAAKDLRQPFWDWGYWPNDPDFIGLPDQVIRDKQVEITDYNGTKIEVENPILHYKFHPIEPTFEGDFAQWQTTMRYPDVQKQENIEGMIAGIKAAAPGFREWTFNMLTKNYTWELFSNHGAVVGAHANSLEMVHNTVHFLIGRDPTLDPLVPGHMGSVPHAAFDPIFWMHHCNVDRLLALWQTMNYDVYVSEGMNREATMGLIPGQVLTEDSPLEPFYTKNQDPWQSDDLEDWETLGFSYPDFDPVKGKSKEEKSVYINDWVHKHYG
mushroom tyrosinase, sequence (G1K3P4 1-150 partner): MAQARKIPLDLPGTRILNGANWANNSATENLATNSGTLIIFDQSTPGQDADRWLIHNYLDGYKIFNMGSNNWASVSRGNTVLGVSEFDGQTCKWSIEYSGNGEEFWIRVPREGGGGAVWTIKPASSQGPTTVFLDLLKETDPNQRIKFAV
Description: The inhibitory effect on mushroom tyrosinase was determined spectrophotometrically via L-DOPA oxidation. The reaction mixture consisted of 20 μL of hdTIPs, 140 μL of 100 mM sodium phosphate buffer (pH6.8) and 40 μL of 200 units/mL mushroom tyrosinase (EC 1.14.18.1; Sigma, Saint Louis, USA) placed in a 96-well microplate, then incubated for 10 min. After that, 20 μL of 5mM L-DOPA were mixed into each well over 20 min. Furthermore, the amount of dopachrome produced absorbance was measured at 475 nm. In addition, KA was used as the positive control at the same concentrations and conditions to hdTIPs. This method was modified from Kim et al..
The mushroom tyrosinase inhibitory activity was calculated with the following equation: % Mushroom tyrosinase inhibition=[(C)−(S)/(C)]×100, where, C represents the OD475 of control and S is the OD475 of sample. All experiments were performed in triplicate to determine the IC50 of the samples.

cellular tyrosinase = target: T1, cellular tyrosinase (Mus musculus, UniProt P11344); assay: Intracellular (cellular) tyrosinase activity assay in UV-induced B16F10 cells; assay type: cell-based, murine; conditions: 70 μM peptide, UVA/UVB-induced B16F10 cells, triplicate
T1 construct: the harvested cells were lysed in cell extraction buffer; endogenous in cells; host or cells: B16F10 murine melanoma cells, UVA/UVB-induced
T1 sequence (P11344 19-533): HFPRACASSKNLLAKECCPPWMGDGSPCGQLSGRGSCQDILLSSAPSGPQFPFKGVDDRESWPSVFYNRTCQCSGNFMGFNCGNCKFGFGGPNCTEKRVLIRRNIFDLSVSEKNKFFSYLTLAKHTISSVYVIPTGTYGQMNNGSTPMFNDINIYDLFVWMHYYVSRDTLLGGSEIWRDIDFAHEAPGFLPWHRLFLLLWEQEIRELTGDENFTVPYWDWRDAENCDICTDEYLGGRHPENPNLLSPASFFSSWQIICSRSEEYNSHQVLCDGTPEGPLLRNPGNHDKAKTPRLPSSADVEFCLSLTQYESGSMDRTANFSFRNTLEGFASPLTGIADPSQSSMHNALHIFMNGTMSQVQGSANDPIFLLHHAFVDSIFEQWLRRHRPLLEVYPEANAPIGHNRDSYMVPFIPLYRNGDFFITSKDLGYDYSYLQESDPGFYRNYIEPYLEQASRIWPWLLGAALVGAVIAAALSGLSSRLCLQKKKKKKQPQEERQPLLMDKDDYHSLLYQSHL
Description: Tyrosinase activity was measured based on Dopa oxidase activity by estimating the dopachrome production according to the method by Qiao et al., 2012 [54], with some modifications. B16F10 cells were seeded at 5 × 10^6 cells/mL in 24-well plates. […] Each well was then washed and replaced with PBS 600 μL and induced with UVA (314-400 nm, 3.0 W) and UVB (280-315 nm, 13.6 W) using OSRAM (Ultra-Vitalux, Germany) for 22 s (0.32 J/cm^2). After that, the cells were incubated with medium 600 μL/well for a further 24 h. Then, the cells were trypsinized and the harvested cells were lysed in cell extraction buffer. After normalized protein concentration, 10 μL of each lysate supernatant was aliquoted into a 96-well plate and shaking incubated in dark conditions with 1 mM L-DOPA 90 μL in PBS at 37 °C at 280 rpm for 10 min. The absorbance was measured at 475 nm and all experiments were performed in triplicate to determine the IC50 of the samples. The cellular tyrosinase inhibitory activity was calculated with the following equation: % Cellular tyrosinase inhibition=[(C)-(S)/(C)]×100, where, C are defined as in the previous section.

B16F10 melanoma cells = assay: Melanin content assay in UV-induced B16F10 cells; assay type: cell-based, murine; conditions: 70 μM peptide, UVA/UVB-induced B16F10 cells, triplicate
Description: Cellular melanin content was measured using a modified method by Jegal, et al.. B16F10 cells were seeded at 5 × 10^5 cells/mL in 24-well plates. […] After that, the cells in each well were washed and replaced by PBS. The UV stimulation process was performed by the exposure to UVA (314-400 nm, 3.0 W) and UVB (280-315 nm, 13.6 W) for 22 s. Then, PBS was replaced with media and further incubated for 24 h. The UV-stimulated cells were then trypsinized and centrifuged at 1500 rpm for 5 min. The cell pellet was then dissolved in 2 M NaOH at 60 °C for 1 h to solubilize the melanin. The melanin content was estimated by measuring the absorbance at 405 nm. The melanin content was calculated with the following equation: % Melanin content=(S)/(C)×100, where, S is the OD405 of sample and C represents the OD405 of control. All experiments were performed in triplicate.

[1] = system: superoxide dismutase (SOD); assay: Antioxidative enzyme activity, superoxide dismutase (assay kit); assay type: cell-based, murine; conditions: 70 μM, UV-exposed B16F10 cells
Description: (§1) To determine the antioxidant activity, the centrifugation precipitate from Section 4.6 was dissolved in 1 mL of 1 M NaOH containing 10% DMSO at 80 °C for 1 h. Various assay kits, all from Beijing Solarbio Science & Technology Co., Ltd., Beijing, China, were used to measure the quantity of reduced reactive oxygen species (ROS) and the activity of superoxide dismutase (SOD), catalase (CAT), and glutathione peroxidase (GPx) according to the methods by Hu et al..

[2] = system: glutathione peroxidase (GPx); assay: Antioxidative enzyme activity, glutathione peroxidase (assay kit); assay type: cell-based, murine; conditions: 70 μM, UV-exposed B16F10 cells
Description: as §1

tyrosinase [3] = conditions: KNN machine learning model, 425 sequence features; cited from earlier work
Text: (§2) Table 1 Abalone predicted TIPs by KNN and RF-based predictors and the predicted antioxidant scores by AnOxPePred 1.0 program. | column: Predicted Anti-Tyrosinase Probability / KNN Predictor || Previously, our research team proposed the in-house machine learning-based anti-tyrosinase prediction tool, which provides thousands of potential peptides. The probability scores of all 1079 peptides from KNN-based and RF-based models can be found in the supplementary file of the previous article by Kongsompong et al.. The KNN and RF predictors were trained and tested against 133 peptides with known anti-tyrosinase properties with 97% and 99% accuracy. The predictions of both models were based on the numeric matrix of 425 features calculated from amino acid composition (20 featur ...

tyrosinase [4] = conditions: RF machine learning model, 425 sequence features; cited from earlier work
Text: as §2, with “/ RF” for “/ KNN”

Question: With `CSCC[C@H](NC(=O)[C@H](CCC(N)=O)NC(=O)[C@H](CO)NC(=O)[C@@H](N)[C@@H](C)O)C(=O)N[C@@H](CO)C(=O)N[C@@H](CCCNC(=N)N)C(=O)N[C@@H](CO)C(=O)N[C@@H](CO)C(=O)N[C@@H](CO)C(=O)N[C@@H](CCCNC(=N)N)C(=O)O` [KNN2] (H-TSQMSRSSSR-OH; N-terminus and C-terminus assumed) as the compound, how does the “inhibitory effect on mushroom tyrosinase (diphenolase activity)” value (mushroom tyrosinase) read?
Answer: The value was “did not show any inhibition”.

Question: What about the “inhibition of cellular tyrosinase” value (cellular tyrosinase) of the same compound?
Answer: Its value is “fourth-most-effective inhibitor”.

Question: And the “inhibition of melanin content” value (B16F10 melanoma cells)?
Answer: Its value is “fourth-most-effective inhibitor”.

Question: And the “effect on SOD activity” value [1]?
Answer: Its value is “elevated”.

Question: And the “effect on GPx activity” value [2]?
Answer: The value was “elevated”.

Question: And the “Predicted Anti-Tyrosinase Probability KNN Predictor” value (tyrosinase [3])?
Answer: The value was 1.00.

Question: And the “Predicted Anti-Tyrosinase Probability RF Predictor” value (tyrosinase [4])?
Answer: Its value is 0.37.
